How the values were obtained:
Assay in all cases: relative viability (nuclei count vs DMSO), 5 days (fraction); higher = more cells survive
SGI-1776 + Vorinostat = compound: CN1CCC(CNc2ccc3ncc(-c4cccc(OC(F)(F)F)c4)n3n2)CC1 [SGI-1776] + O=C(CCCCCCC(=O)Nc1ccccc1)NO [Vorinostat] (partner 1 µM)
In short: (§1)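 Lung cancer cell lines in 1536-well plates were dosed by pin tool the day after seeding, either with one drug alone or with a fixed anchor-drug dose plus five library-drug doses (not always all listed) in √10 steps. After 5 days, cells were fixed and their nuclei stained in one step (final 0.05% Triton X-100, 1% formaldehyde, 1 ug/ml Hoechst), then counted on 4× images. Relative viability is the nuclei count in treated wells divided by that in vehicle wells. Values are medians of duplicate plates.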

Entinostat + Dasatinib = compound: Nc1ccccc1NC(=O)c1ccc(CNC(=O)OCc2cccnc2)cc1 [Entinostat] + Cc1nc(Nc2ncc(C(=O)Nc3c(C)cccc3Cl)s2)cc(N2CCN(CCO)CC2)n1 [Dasatinib] (partner 0.075 µM)
In short: as §1

[1] = compound: C1COCCN1C2=NC(=NC3=C2OC4=C3C=CC=N4)C5=CC(=CC=C5)NC(=O)C6=CN=C(C=C6)N + Cc1nc(NC(=O)N2CCC[C@H]2C(N)=O)sc1-c1ccnc(C(C)(C)C(F)(F)F)c1 [Alpelisib] (partner 2 µM)
In short: as §1

SGI-1776 + Trametinib = compound: CN1CCC(CNc2ccc3ncc(-c4cccc(OC(F)(F)F)c4)n3n2)CC1 [SGI-1776] + CC(=O)Nc1cccc(-n2c(=O)n(C3CC3)c(=O)c3c(Nc4ccc(I)cc4F)n(C)c(=O)c(C)c32)c1 [Trametinib] (partner 0.02 µM)
In short: as §1

Cell Line	relative viability (SGI-1776 + Vorinostat; first compound 0.08 µM)	relative viability (SGI-1776 + Vorinostat; first compound 0.8 µM)	relative viability (SGI-1776 + Vorinostat; first compound 2.53 µM)	relative viability (SGI-1776 + Vorinostat; first compound 8 µM)	relative viability (Entinostat + Dasatinib; first compound 0.02 µM)	relative viability (Entinostat + Dasatinib; first compound 0.06325 µM)	relative viability (Entinostat + Dasatinib; first compound 0.2 µM)	relative viability (Entinostat + Dasatinib; first compound 0.6325 µM)	relative viability (Entinostat + Dasatinib; first compound 2 µM)	relative viability ([1]; first compound 0.02 µM)	relative viability ([1]; first compound 0.06325 µM)	relative viability ([1]; first compound 0.2 µM)	relative viability ([1]; first compound 0.6325 µM)	relative viability ([1]; first compound 2 µM)	relative viability (SGI-1776 + Trametinib; first compound 0.08 µM)	relative viability (SGI-1776 + Trametinib; first compound 0.8 µM)	relative viability (SGI-1776 + Trametinib; first compound 2.53 µM)	relative viability (SGI-1776 + Trametinib; first compound 8 µM)
NCI-H1437	0.84	0.857	0.798	0.702	0.434	0.423	0.188	0.137	0.126	0.952	1.09	0.788	0.962	0.423	0.565	0.524	0.361	0.301
EKVX	0.854	0.778	0.717	0.829	0.656	0.51	0.492	0.435	0.343	0.838	0.787	0.94	0.867	0.572	0.386	0.342	0.344	0.31
NCI-H460	0.887	0.688	0.717	0.715	0.52	0.548	0.235	0.0904	0.0466	0.393	0.5	0.395	0.349	0.0947	0.127	0.162	0.208	0.154
NCI-H1993	1.13	0.626	0.523	0.457	0.747	0.591	0.535	0.496	0.259	0.651	0.624	0.691	0.697	0.595	0.576	0.496	0.765	0.538
HCC-78	0.456	0.44	0.501	0.339	0.432	0.39	0.316	0.277	0.291	0.34	0.331	0.378	0.324	0.318	0.772	0.804	0.693	0.72
NCI-H2087	0.927	0.783	0.443	0.773	1	0.837	0.711	0.373	0.204	1.05	1.12	1.05	1.12	0.619	0.151	0.164	0.16	0.17
H3255	0.904	0.919	0.815	0.718	0.397	0.37	0.27	0.32	0.265	0.577	0.714	0.628	0.693	0.483	0.633	0.582	0.577	0.559
NCI-H2126	0.709	0.801	0.77	0.698	0.615	0.545	0.443	0.349	0.268	0.778	0.726	0.732	0.753	0.627	0.585	0.572	0.293	0.472
LCLC-103H	0.839	0.862	0.832	0.652	0.478	0.458	0.48	0.362	0.224	0.87	0.993	0.962	0.967	0.878	0.658	0.689	0.633	0.642
RERF-LC-KJ	0.694	0.745	0.686	0.48	0.82	0.656	0.731	0.374	0.237	0.809	0.946	0.828	0.861	0.616	0.917	0.843	0.722	0.707
EBC-1	–	–	–	–	–	–	–	–	–	0.653	0.728	0.742	0.713	0.478	–	–	–	–
HCC-15	0.856	0.853	0.726	0.722	0.664	0.749	0.595	0.33	0.178	0.901	0.848	0.843	0.827	0.637	0.262	0.376	0.332	0.338
NCI-H1650	0.848	0.621	0.521	0.423	0.385	0.354	0.407	0.284	0.212	–	–	–	–	–	0.543	0.521	0.504	0.371
COR-L 105	0.921	0.885	0.935	0.642	0.337	0.407	0.36	0.344	0.232	0.912	1.02	0.801	0.705	0.583	0.504	0.388	0.452	0.41
NCI-H596	0.583	0.75	0.595	0.485	0.627	0.593	0.576	0.448	0.378	0.497	0.51	0.691	0.51	0.394	0.797	0.733	0.782	0.678
LXF-289	0.693	0.827	0.79	0.682	0.209	0.261	0.177	0.178	0.185	1.12	1.09	1.02	1	0.785	0.68	0.64	0.668	0.606
NCI-H1703	–	–	–	–	–	–	–	–	–	0.282	0.315	0.288	0.289	0.201	–	–	–	–
NCI-H2170	0.83	0.825	0.853	0.76	0.532	0.636	0.69	0.558	0.365	0.847	0.887	0.682	0.854	0.496	0.925	0.924	0.855	0.912
NCI-H522	0.92	0.896	0.903	0.858	0.882	1.14	1.16	1.23	0.795	–	–	–	–	–	0.81	0.789	0.723	0.798
